Experiments:
late watergrass = assay: Test Example 2: herbicidal activity, application during weed generation under submerged conditions (Table 17, symbol A); type: in vivo, late watergrass (Echinochloa oryzicola); details: AAH 320 g/ha; application during weed generation, submerged conditions
Outline: (§1)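 3-wk visual-criteria score after one water-surface dose. Emulsion formulation, water-diluted to set rate; applied at 1–2 leaf stage; alluvial soil, 4 cm standing water; seeds co-sown; greenhouse 25–30° C.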

Japanese bulrush = assay: Test Example 2: herbicidal activity, application during weed generation under submerged conditions (Table 17, symbol B); type: in vivo, Japanese bulrush (Schoenoplectus juncoides); details: AAH 320 g/ha; application during weed generation, submerged conditions
Outline: as §1

oval-leafed pondweed = assay: Test Example 2: herbicidal activity, application during weed generation under submerged conditions (Table 17, symbol C); type: in vivo, oval-leafed pondweed (Monochoria vaginalis); details: AAH 320 g/ha; application during weed generation, submerged conditions
Outline: as §1

barnyard grass [1] = assay: Test Example 3: herbicidal effect by foliage application, Wagner pot (Table 18, symbol H); type: in vivo, barnyard grass (Echinochloa crus-galli); details: 320 g/ha
Outline: (§2)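 Plants were sown in alluvial soil held under 0.1–0.5 cm standing water and grown 14 days in a greenhouse at 25–30 °C. An emulsifiable formulation, water-diluted to the set dose, was then sprayed onto the foliage, and effects were scored three weeks later using previously defined criteria.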

Chinese sprangletop = assay: Test Example 3: herbicidal effect by foliage application, Wagner pot (Table 18, symbol D); type: in vivo, chinese sprangletop (Leptochloa chinensis); details: 320 g/ha
Outline: as §2

rice flat sedge = assay: Test Example 3: herbicidal effect by foliage application, Wagner pot (Table 18, symbol E); type: in vivo, rice flat sedge (Cyperus iria); details: 320 g/ha
Outline: as §2

southern crabgrass [2] = assay: Test Example 4: herbicidal effect by soil treatment (Table 19, symbol F); type: in vivo, southern crabgrass (Digitaria ciliaris)
Outline: (§3)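 In this soil treatment, the formulated compound reached the seeds only through the soil: seeds were buried about 1.5 cm deep in sterilized diluvial soil, then the diluted emulsion was sprayed over the surface. After three weeks at 25° C. to 30° C. in a greenhouse, effects were graded on criteria from an earlier test.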

green foxtail [3] = assay: Test Example 4: herbicidal effect by soil treatment (Table 19, symbol G); type: in vivo, green foxtail (Setaria viridis)
Outline: as §3

barnyard grass [4] = assay: Test Example 4: herbicidal effect by soil treatment (Table 19, symbol H); type: in vivo, barnyard grass (Echinochloa crus-galli)
Outline: as §3

wild oat [5] = assay: Test Example 4: herbicidal effect by soil treatment (Table 19, symbol I); type: in vivo, wild oat (Avena fatua)
Outline: as §3

blackgrass [6] = assay: Test Example 4: herbicidal effect by soil treatment (Table 19, symbol J); type: in vivo, blackgrass (Alopecurus myosuroides)
Outline: as §3

Italian ryegrass [7] = assay: Test Example 4: herbicidal effect by soil treatment (Table 19, symbol K); type: in vivo, Italian ryegrass (Lolium multiflorum)
Outline: as §3

windgrass [8] = assay: Test Example 4: herbicidal effect by soil treatment (Table 19, symbol L); type: in vivo, windgrass (Apera spica-venti)
Outline: as §3

velvetleaf [9] = assay: Test Example 4: herbicidal effect by soil treatment (Table 19, symbol M); type: in vivo, velvetleaf (Abutilon theophrasti)
Outline: as §3

redroot pigweed [10] = assay: Test Example 4: herbicidal effect by soil treatment (Table 19, symbol N); type: in vivo, redroot pigweed (Amaranthus retroflexus)
Outline: as §3

lambsquarters [11] = assay: Test Example 4: herbicidal effect by soil treatment (Table 19, symbol O); type: in vivo, lambsquarters (Chenopodium album)
Outline: as §3

chickweed [12] = assay: Test Example 4: herbicidal effect by soil treatment (Table 19, symbol P); type: in vivo, common chickweed (Stellaria media)
Outline: as §3

persian speedwell [13] = assay: Test Example 4: herbicidal effect by soil treatment (Table 19, symbol R); type: in vivo, Persian speedwell (Veronica persica)
Outline: as §3

southern crabgrass [14] = assay: Test Example 5: herbicidal effect by foliage application, plastic box (Table 20, symbol F); type: in vivo, southern crabgrass (Digitaria ciliaris); details: 320 g/ha
Outline: (§4)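 Plants were sown into sterilized diluvial soil under about 1.5 cm cover and kept in a greenhouse at 25° C. to 30° C. Fourteen days on, foliage received an even spray of the diluted emulsion. Herbicidal or crop effect was judged three weeks afterwards.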

green foxtail [15] = assay: Test Example 5: herbicidal effect by foliage application, plastic box (Table 20, symbol G); type: in vivo, green foxtail (Setaria viridis); details: 320 g/ha
Outline: as §4

barnyard grass [16] = assay: Test Example 5: herbicidal effect by foliage application, plastic box (Table 20, symbol H); type: in vivo, barnyard grass (Echinochloa crus-galli); details: 320 g/ha
Outline: as §4

wild oat [17] = assay: Test Example 5: herbicidal effect by foliage application, plastic box (Table 20, symbol I); type: in vivo, wild oat (Avena fatua); details: 320 g/ha
Outline: as §4

blackgrass [18] = assay: Test Example 5: herbicidal effect by foliage application, plastic box (Table 20, symbol J); type: in vivo, blackgrass (Alopecurus myosuroides); details: 320 g/ha
Outline: as §4

Italian ryegrass [19] = assay: Test Example 5: herbicidal effect by foliage application, plastic box (Table 20, symbol K); type: in vivo, Italian ryegrass (Lolium multiflorum); details: 320 g/ha
Outline: as §4

windgrass [20] = assay: Test Example 5: herbicidal effect by foliage application, plastic box (Table 20, symbol L); type: in vivo, windgrass (Apera spica-venti); details: 320 g/ha
Outline: as §4

velvetleaf [21] = assay: Test Example 5: herbicidal effect by foliage application, plastic box (Table 20, symbol M); type: in vivo, velvetleaf (Abutilon theophrasti); details: foliage application, 320 g/ha, 3 weeks after application
Outline: as §4

lambsquarters [22] = assay: Test Example 5: herbicidal effect by foliage application, plastic box (Table 20, symbol O); type: in vivo, lambsquarters (Chenopodium album); details: 320 g/ha
Outline: as §4

persian speedwell [23] = assay: Test Example 5: herbicidal effect by foliage application, plastic box (Table 20, symbol R); type: in vivo, Persian speedwell (Veronica persica); details: 320 g/ha
Outline: as §4

redroot pigweed [24] = assay: Test Example 5: herbicidal effect by foliage application, plastic box (Table 20, symbol N); type: in vivo, redroot pigweed (Amaranthus retroflexus); details: 320 g/ha, foliage application after 14-day growth, evaluated three weeks after application
Outline: as §4

chickweed [25] = assay: Test Example 5: herbicidal effect by foliage application, plastic box (Table 20, symbol P); type: in vivo, common chickweed (Stellaria media); details: 320 g/ha, foliage application after 14-day growth, evaluated three weeks after application
Outline: as §4

[26] = foliage application, 3 weeks after application
[27] = amount of applied herbicide 320 g/ha
[28] = foliage application after 14-day growth, evaluated three weeks after application

SMILES: CCCC(=O)Oc1c(C)nn(C)c(=O)c1-c1c(-c2ccc(C(F)(F)F)cc2)sc2ccc(F)cc12 [2-021]
- herbicidal effect rating, A: late watergrass (late watergrass): 0 (Herbicidal rate of 5% or less (almost no effect))
- herbicidal effect rating, B: Japanese bulrush (Japanese bulrush): 2 (Herbicidal rate of 20% or more and less than 40%)
- herbicidal effect rating, C: oval-leafed pondweed (oval-leafed pondweed): 0 (Herbicidal rate of 5% or less (almost no effect))
- herbicidal effect on H (barnyard grass), rating 0-5 (barnyard grass [1]): 5 (Herbicidal rate of 90% or more (almost completely withered))
- herbicidal effect on D (Chinese sprangletop), rating 0-5 (Chinese sprangletop): 3 (Herbicidal rate of 40% or more and less than 70%)
- herbicidal effect on E (rice flat sedge), rating 0-5 (rice flat sedge): 5 (Herbicidal rate of 90% or more (almost completely withered))
- herbicidal effect rating, F: southern crabgrass (southern crabgrass [2]; 320 g/ha): 5 (Herbicidal rate of 90% or more (almost completely withered))
- herbicidal effect rating, G: green foxtail (green foxtail [3]; 320 g/ha): 5 (Herbicidal rate of 90% or more (almost completely withered))
- herbicidal effect rating, H: barnyard grass (barnyard grass [4]; 320 g/ha): 4 (Herbicidal rate of 70% or more and less than 90%)
- herbicidal effect rating, I: wild oat (wild oat [5]; 320 g/ha): 0 (Herbicidal rate of 5% or less (almost no effect))
- herbicidal effect rating, J: blackgrass (blackgrass [6]; 320 g/ha): 0 (Herbicidal rate of 5% or less (almost no effect))
- herbicidal effect rating, K: Italian ryegrass (Italian ryegrass [7]; 320 g/ha): 5 (Herbicidal rate of 90% or more (almost completely withered))
- herbicidal effect rating, L: windgrass (windgrass [8]; 320 g/ha): 5 (Herbicidal rate of 90% or more (almost completely withered))
- herbicidal effect rating, M: velvetleaf (velvetleaf [9]; 320 g/ha): 4 (Herbicidal rate of 70% or more and less than 90%)
- herbicidal effect rating, N: redroot pigweed (redroot pigweed [10]; 320 g/ha): 5 (Herbicidal rate of 90% or more (almost completely withered))
- herbicidal effect rating, O: lambsquarters (lambsquarters [11]; 320 g/ha): 5 (Herbicidal rate of 90% or more (almost completely withered))
- herbicidal effect rating, P: chickweed (chickweed [12]; 320 g/ha): 5 (Herbicidal rate of 90% or more (almost completely withered))
- herbicidal effect rating, R: persian speedwell (persian speedwell [13]; 320 g/ha): 5 (Herbicidal rate of 90% or more (almost completely withered))
- effect on southern crabgrass (F) (southern crabgrass [14]; [26]): 4 (Herbicidal rate of 70% or more and less than 90%)
- effect on green foxtail (G) (green foxtail [15]; [26]): 5 (Herbicidal rate of 90% or more (almost completely withered))
- effect on barnyard grass (H) (barnyard grass [16]; [26]): 5 (Herbicidal rate of 90% or more (almost completely withered))
- effect on wild oat (I) (wild oat [17]; [26]): 5 (Herbicidal rate of 90% or more (almost completely withered))
- effect on blackgrass (J) (blackgrass [18]; [26]): 3 (Herbicidal rate of 40% or more and less than 70%)
- effect on Italian ryegrass (K) (Italian ryegrass [19]; [26]): 5 (Herbicidal rate of 90% or more (almost completely withered))
- effect on windgrass (L) (windgrass [20]; [26]): 5 (Herbicidal rate of 90% or more (almost completely withered))
- effect on velvetleaf (M) (velvetleaf [21]): 5 (Herbicidal rate of 90% or more (almost completely withered))
- effect on lambsquarters (O) (lambsquarters [22]; [26]): 5 (Herbicidal rate of 90% or more (almost completely withered))
- effect on persian speedwell (R) (persian speedwell [23]; [26]): 5 (Herbicidal rate of 90% or more (almost completely withered))

SMILES: CCCC(=O)Oc1c(C)nn(C)c(=O)c1-c1c(-c2ccccc2OC)sc2c(Cl)cccc12 [4-022]
- herbicidal effect rating, A: late watergrass (late watergrass): 0 (Herbicidal rate of 5% or less (almost no effect))
- herbicidal effect rating, B: Japanese bulrush (Japanese bulrush): 2 (Herbicidal rate of 20% or more and less than 40%)
- herbicidal effect rating, C: oval-leafed pondweed (oval-leafed pondweed): 0 (Herbicidal rate of 5% or less (almost no effect))
- herbicidal effect on barnyard grass (H) (barnyard grass [1]): 5 (Herbicidal rate of 90% or more (almost completely withered))
- herbicidal effect on Chinese sprangletop (D) (Chinese sprangletop): 5 (Herbicidal rate of 90% or more (almost completely withered))
- herbicidal effect on rice flat sedge (E) (rice flat sedge): 4 (Herbicidal rate of 70% or more and less than 90%)
- Herbicidal effect by soil treatment, F: southern crabgrass (southern crabgrass [2]; [27]): 3 (Herbicidal rate of 40% or more and less than 70%)
- Herbicidal effect by soil treatment, G: green foxtail (green foxtail [3]; [27]): 3 (Herbicidal rate of 40% or more and less than 70%)
- Herbicidal effect by soil treatment, H: barnyard grass (barnyard grass [4]; [27]): 3 (Herbicidal rate of 40% or more and less than 70%)
- Herbicidal effect by soil treatment, I: wild oat (wild oat [5]; [27]): 0 (Herbicidal rate of 5% or less (almost no effect))
- Herbicidal effect by soil treatment, J: blackgrass (blackgrass [6]; [27]): 0 (Herbicidal rate of 5% or less (almost no effect))
- Herbicidal effect by soil treatment, K: Italian ryegrass (Italian ryegrass [7]; [27]): 0 (Herbicidal rate of 5% or less (almost no effect))
- Herbicidal effect by soil treatment, L: windgrass (windgrass [8]; [27]): 0 (Herbicidal rate of 5% or less (almost no effect))
- Herbicidal effect by soil treatment, M: velvetleaf (velvetleaf [9]; [27]): 0 (Herbicidal rate of 5% or less (almost no effect))
- Herbicidal effect by soil treatment, N: redroot pigweed (redroot pigweed [10]; [27]): 3 (Herbicidal rate of 40% or more and less than 70%)
- Herbicidal effect by soil treatment, O: lambsquarters (lambsquarters [11]; [27]): 2 (Herbicidal rate of 20% or more and less than 40%)
- Herbicidal effect by soil treatment, P: chickweed (chickweed [12]; [27]): 1 (Herbicidal rate of 5% or more and less than 20%)
- Herbicidal effect by soil treatment, R: persian speedwell (persian speedwell [13]; [27]): 0 (Herbicidal rate of 5% or less (almost no effect))
- herbicidal effect on F: southern crabgrass (evaluation grade 0-5) (southern crabgrass [14]; [28]): 0 (Herbicidal rate of 5% or less (almost no effect))
- herbicidal effect on G: green foxtail (evaluation grade 0-5) (green foxtail [15]; [28]): 2 (Herbicidal rate of 20% or more and less than 40%)
- herbicidal effect on H: barnyard grass (evaluation grade 0-5) (barnyard grass [16]; [28]): 4 (Herbicidal rate of 70% or more and less than 90%)
- herbicidal effect on I: wild oat (evaluation grade 0-5) (wild oat [17]; [28]): 0 (Herbicidal rate of 5% or less (almost no effect))
- herbicidal effect on J: blackgrass (evaluation grade 0-5) (blackgrass [18]; [28]): 0 (Herbicidal rate of 5% or less (almost no effect))
- herbicidal effect on K: Italian ryegrass (evaluation grade 0-5) (Italian ryegrass [19]; [28]): 1 (Herbicidal rate of 5% or more and less than 20%)
- herbicidal effect on L: windgrass (evaluation grade 0-5) (windgrass [20]; [28]): 5 (Herbicidal rate of 90% or more (almost completely withered))
- herbicidal effect on N: redroot pigweed (evaluation grade 0-5) (redroot pigweed [24]): 3 (Herbicidal rate of 40% or more and less than 70%)
- herbicidal effect on O: lambsquarters (evaluation grade 0-5) (lambsquarters [22]; [28]): 0 (Herbicidal rate of 5% or less (almost no effect))
- herbicidal effect on P: chickweed (evaluation grade 0-5) (chickweed [25]): 5 (Herbicidal rate of 90% or more (almost completely withered))
- herbicidal effect on R: persian speedwell (evaluation grade 0-5) (persian speedwell [23]; [28]): 3 (Herbicidal rate of 40% or more and less than 70%)

From patent publication US20230085307A1, “PYRIDAZINONE COMPOUND AND HERBICIDE” (NISSAN CHEMICAL CORPORATION, priority 2019, published 2023)
